Source: ChEMBL document CHEMBL3864133, “Discovery of a Potent and Selective in Vivo Probe (GNE-272) for the Bromodomains of CBP/EP300” (J Med Chem, 2016)
Active and inactive are the calls of the source. The calls are words filed in the database; no cut-off is given here.

Experiments:
[1] = Apparent permeability of the compound across apical side to basolateral side in MDCK cells at 10 uM measured after 180 mins by LC-MS/MS analysis; type: ADME, cell-based, Canis lupus familiaris; settings: dog
[2] = Protein binding in nu/nu mouse plasma at 5 uM measured after 4 hrs by LC-MS/MS analysis; type: ADME, cell-free; settings: read-out: PPB (converted)
[3] = Clearance in nu/nu mouse at 1 mg/kg, iv by LC-MS/MS analysis; type: ADME, organism-based; settings: in vivo
[4] = Volume of distribution at steady state in nu/nu mouse at 1 mg/kg, iv or 100 mg/kg, po by LC-MS/MS analysis; type: ADME, organism-based; settings: in vivo, read-out: Vdss
[5] = Cmax in nu/nu mouse at 100 mg/kg, po by LC-MS/MS analysis; type: ADME, organism-based; parameters: dose 100 mg/kg, route oral; settings: in vivo
Cytochrome P450 2C9 = Cytochrome P450 2C9 (Homo sapiens, UniProt P11712); experiment: Inhibition of CYP2C9 in human liver microsomes assessed as formation of 7-hydroxywarfarin from warfarin measured after 30 mins in presence of NADPH by LC-MS/MS analysis; type: ADME; settings: 0.5 h
[6] = fCmax in nu/nu mouse at 100 mg/kg, po by LC-MS/MS analysis; type: ADME, organism-based; settings: in vivo
Cytochrome P450 1A2 = Cytochrome P450 1A2 (Homo sapiens, UniProt P05177); experiment: Inhibition of CYP1A2 in human liver microsomes assessed as formation of acetaminophen from phenacetin measured after 30 mins in presence of NADPH by LC-MS/MS analysis; type: ADME; settings: 0.5 h
Cytochrome P450 2C19 = Cytochrome P450 2C19 (Homo sapiens, UniProt P33261); experiment: Inhibition of CYP2C19 in human liver microsomes assessed as formation of 4-hydroxymephenytoin from mephenytoin measured after 40 mins in presence of NADPH by LC-MS/MS analysis; type: ADME
Cytochrome P450 2D6 = Cytochrome P450 2D6 (Homo sapiens, UniProt P10635); experiment: Inhibition of CYP2D6 in human liver microsomes assessed as formation of dextrophan from dextromethorphan measured after 10 mins in presence of NADPH by LC-MS/MS analysis; type: ADME
[7] = biological target: T1, CREB-binding protein/Histone acetyltransferase p300 (Homo sapiens, UniProt Q09472+Q92793); experiment: Inhibition of CBP/EP300 in human HL60 cells assessed as decrease in MYC expression at 5 uM measured after 4 hrs by RT-PCR analysis relative to DMSO control; type: cell-based; settings: HL-60
T1 sequence (Q09472 whole entry, looked up): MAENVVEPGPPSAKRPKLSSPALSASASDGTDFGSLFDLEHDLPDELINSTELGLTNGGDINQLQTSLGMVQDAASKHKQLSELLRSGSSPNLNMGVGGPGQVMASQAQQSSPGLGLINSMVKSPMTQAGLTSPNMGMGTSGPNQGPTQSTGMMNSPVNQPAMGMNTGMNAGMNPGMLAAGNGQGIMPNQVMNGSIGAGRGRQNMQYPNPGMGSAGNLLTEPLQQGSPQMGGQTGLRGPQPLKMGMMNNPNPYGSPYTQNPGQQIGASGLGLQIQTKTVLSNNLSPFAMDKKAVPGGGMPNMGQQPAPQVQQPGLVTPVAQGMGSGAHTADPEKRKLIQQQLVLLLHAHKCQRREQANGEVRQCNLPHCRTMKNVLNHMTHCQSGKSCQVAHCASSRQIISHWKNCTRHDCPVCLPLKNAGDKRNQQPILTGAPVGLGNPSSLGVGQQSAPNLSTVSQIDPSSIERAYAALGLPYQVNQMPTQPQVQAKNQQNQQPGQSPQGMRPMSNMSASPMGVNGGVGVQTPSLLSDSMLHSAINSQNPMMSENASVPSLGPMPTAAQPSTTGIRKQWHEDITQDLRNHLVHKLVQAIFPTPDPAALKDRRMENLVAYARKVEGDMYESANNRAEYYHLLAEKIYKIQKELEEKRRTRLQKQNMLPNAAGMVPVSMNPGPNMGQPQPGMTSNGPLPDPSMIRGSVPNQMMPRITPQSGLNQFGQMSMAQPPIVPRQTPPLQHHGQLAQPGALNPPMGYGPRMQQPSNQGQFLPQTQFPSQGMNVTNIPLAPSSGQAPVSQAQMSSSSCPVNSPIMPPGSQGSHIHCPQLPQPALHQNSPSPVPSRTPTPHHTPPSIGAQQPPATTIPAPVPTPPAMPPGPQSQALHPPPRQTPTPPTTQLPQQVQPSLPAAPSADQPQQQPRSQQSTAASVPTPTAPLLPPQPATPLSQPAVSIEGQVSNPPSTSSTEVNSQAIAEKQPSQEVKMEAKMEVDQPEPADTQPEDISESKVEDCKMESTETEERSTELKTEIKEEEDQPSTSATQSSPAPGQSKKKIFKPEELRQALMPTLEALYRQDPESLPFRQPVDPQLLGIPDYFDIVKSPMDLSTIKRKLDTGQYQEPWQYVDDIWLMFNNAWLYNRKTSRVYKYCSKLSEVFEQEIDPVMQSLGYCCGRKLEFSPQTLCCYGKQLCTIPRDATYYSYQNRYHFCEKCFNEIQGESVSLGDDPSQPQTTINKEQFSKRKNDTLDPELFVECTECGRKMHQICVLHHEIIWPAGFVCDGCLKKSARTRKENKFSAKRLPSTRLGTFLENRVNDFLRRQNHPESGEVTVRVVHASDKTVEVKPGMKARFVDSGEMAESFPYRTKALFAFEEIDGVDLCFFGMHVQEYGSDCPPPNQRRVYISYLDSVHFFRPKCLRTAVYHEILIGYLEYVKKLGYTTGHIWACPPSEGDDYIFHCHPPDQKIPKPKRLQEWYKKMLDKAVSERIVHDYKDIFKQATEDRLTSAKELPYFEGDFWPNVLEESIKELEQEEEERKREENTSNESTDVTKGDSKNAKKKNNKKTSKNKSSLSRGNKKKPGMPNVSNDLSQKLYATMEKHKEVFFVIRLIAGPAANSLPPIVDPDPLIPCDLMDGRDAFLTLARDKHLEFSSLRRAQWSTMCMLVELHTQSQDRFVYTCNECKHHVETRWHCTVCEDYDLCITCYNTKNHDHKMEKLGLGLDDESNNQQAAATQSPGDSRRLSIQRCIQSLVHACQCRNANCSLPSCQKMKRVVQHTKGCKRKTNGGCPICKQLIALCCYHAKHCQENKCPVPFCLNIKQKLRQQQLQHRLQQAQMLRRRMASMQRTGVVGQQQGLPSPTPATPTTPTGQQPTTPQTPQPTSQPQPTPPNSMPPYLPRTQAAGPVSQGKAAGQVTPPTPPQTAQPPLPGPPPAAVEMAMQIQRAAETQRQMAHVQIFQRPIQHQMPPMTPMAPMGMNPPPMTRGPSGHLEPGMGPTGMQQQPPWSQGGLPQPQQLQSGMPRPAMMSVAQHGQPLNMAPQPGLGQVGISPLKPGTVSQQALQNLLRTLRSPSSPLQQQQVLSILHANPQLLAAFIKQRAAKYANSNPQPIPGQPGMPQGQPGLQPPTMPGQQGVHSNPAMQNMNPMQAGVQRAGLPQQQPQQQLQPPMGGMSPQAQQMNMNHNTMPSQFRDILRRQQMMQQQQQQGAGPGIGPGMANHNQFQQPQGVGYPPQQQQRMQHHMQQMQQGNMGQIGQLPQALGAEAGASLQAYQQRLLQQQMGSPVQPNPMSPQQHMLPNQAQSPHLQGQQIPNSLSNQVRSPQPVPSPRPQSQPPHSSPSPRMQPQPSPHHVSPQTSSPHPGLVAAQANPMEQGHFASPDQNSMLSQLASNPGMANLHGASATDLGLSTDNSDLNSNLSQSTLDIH
T1 sequence (Q92793 whole entry, looked up): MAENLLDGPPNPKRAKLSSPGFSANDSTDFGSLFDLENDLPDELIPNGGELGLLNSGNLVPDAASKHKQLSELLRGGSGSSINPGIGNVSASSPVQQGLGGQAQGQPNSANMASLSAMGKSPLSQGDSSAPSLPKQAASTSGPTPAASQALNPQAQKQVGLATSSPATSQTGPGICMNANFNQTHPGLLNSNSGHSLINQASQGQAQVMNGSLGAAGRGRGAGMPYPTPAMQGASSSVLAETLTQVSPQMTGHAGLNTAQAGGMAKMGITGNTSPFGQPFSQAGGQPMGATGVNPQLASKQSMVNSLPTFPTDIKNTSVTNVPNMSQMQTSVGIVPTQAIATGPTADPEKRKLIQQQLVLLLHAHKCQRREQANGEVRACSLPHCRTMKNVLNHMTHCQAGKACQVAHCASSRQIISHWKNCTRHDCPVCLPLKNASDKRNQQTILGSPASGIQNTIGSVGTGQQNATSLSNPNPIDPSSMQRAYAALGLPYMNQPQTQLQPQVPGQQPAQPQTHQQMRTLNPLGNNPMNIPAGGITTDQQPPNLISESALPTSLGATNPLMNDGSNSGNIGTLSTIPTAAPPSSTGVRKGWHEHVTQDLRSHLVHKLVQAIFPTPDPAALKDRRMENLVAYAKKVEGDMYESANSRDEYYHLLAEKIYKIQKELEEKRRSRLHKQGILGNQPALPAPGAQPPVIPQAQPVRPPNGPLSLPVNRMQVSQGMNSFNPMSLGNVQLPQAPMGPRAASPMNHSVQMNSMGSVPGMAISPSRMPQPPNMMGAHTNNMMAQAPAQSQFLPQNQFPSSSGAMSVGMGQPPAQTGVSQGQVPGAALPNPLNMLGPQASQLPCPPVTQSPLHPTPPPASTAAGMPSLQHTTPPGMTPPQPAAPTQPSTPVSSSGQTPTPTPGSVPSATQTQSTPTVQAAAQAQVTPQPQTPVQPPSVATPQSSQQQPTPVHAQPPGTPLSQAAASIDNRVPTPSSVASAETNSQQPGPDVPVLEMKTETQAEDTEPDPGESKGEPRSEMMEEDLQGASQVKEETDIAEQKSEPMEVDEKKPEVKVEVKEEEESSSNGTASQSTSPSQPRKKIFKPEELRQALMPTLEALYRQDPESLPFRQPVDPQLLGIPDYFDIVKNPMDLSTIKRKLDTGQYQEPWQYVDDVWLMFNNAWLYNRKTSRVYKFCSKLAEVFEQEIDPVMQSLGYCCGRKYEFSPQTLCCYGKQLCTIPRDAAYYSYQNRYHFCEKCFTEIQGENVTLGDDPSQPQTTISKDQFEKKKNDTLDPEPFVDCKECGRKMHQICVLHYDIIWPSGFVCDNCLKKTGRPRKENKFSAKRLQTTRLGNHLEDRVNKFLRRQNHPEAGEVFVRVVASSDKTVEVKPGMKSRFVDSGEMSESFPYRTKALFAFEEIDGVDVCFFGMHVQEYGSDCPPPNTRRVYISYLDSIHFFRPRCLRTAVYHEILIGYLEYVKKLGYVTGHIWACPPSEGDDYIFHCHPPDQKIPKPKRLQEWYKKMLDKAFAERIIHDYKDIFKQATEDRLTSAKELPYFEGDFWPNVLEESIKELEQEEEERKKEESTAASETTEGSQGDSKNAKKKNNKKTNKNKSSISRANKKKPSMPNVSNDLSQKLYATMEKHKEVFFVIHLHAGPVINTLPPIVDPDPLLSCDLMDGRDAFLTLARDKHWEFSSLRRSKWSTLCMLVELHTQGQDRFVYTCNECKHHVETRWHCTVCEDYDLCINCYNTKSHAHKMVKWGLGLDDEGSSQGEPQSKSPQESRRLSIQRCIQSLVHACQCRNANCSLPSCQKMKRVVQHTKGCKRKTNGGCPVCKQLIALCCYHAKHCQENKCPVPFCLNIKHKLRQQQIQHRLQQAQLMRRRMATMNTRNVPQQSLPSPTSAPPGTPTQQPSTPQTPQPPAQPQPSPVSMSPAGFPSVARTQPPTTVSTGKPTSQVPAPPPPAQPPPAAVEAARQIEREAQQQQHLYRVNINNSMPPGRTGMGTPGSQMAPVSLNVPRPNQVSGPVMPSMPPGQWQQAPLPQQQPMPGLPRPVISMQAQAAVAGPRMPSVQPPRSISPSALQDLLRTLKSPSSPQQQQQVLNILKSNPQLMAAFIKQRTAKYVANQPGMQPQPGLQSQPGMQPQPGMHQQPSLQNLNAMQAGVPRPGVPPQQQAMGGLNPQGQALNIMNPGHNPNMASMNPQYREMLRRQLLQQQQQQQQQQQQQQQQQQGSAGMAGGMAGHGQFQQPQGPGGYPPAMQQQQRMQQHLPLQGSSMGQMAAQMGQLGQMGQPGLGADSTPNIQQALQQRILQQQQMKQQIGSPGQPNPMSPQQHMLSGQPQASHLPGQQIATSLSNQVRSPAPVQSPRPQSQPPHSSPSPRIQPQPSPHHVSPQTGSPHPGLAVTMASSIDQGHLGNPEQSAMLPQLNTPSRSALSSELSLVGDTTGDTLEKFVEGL

[8] = biological target: T1, CREB-binding protein/Histone acetyltransferase p300; experiment: Inhibition of CBP/EP300 in human LP-1 cells assessed as decrease in MYC expression at 5 uM measured after 4 hrs by RT-PCR analysis relative to DMSO control; type: cell-based
[9] = biological target: T1, CREB-binding protein/Histone acetyltransferase p300; experiment: Inhibition of CBP/EP300 in human KMS34 cells assessed as decrease in MYC expression at 5 uM measured after 4 hrs by RT-PCR analysis relative to DMSO control; type: cell-based
[10] = biological target: T1, CREB-binding protein/Histone acetyltransferase p300; experiment: Inhibition of CBP/EP300 in human Pfeiffer cells assessed as decrease in MYC expression at 5 uM measured after 4 hrs by RT-PCR analysis relative to DMSO control; type: cell-based
[11] = biological target: T1, CREB-binding protein/Histone acetyltransferase p300; experiment: Inhibition of CBP/EP300 in human MOLM16 cells assessed as suppression of MYB expression at 5 uM measured after 4 hrs by RT-PCR analysis relative to DMSO control; type: cell-based
[12] = biological target: T1, CREB-binding protein/Histone acetyltransferase p300; experiment: Inhibition of CBP/EP300 in human MOLM16 cells assessed as suppression of CCND1 expression at 5 uM measured after 4 hrs by RT-PCR analysis relative to DMSO control; type: cell-based
[13] = biological target: T1, CREB-binding protein/Histone acetyltransferase p300; experiment: Inhibition of CBP/EP300 in human MOLM16 cells assessed as suppression of BCL2 expression at 5 uM measured after 4 hrs by RT-PCR analysis relative to DMSO control; type: cell-based
[14] = biological target: T1, CREB-binding protein/Histone acetyltransferase p300; experiment: Inhibition of CBP/EP300 in human MOLM16 cells assessed as suppression of BCL-XL expression at 5 uM measured after 4 hrs by RT-PCR analysis relative to DMSO control; type: cell-based
[15] = biological target: T1, CREB-binding protein/Histone acetyltransferase p300; experiment: Inhibition of CBP/EP300 in human MOLM16 cells assessed as suppression of BCL6 expression at 5 uM measured after 4 hrs by RT-PCR analysis relative to DMSO control; type: cell-based
[16] = biological target: T1, CREB-binding protein/Histone acetyltransferase p300; experiment: Inhibition of CBP/EP300 in human MOLM16 cells assessed as decrease in MYC expression at 0.1 to 1 uM measured after 4 hrs Western blot analysis; type: cell-based
Jurkat = experiment: Antiproliferative activity against human Jurkat cells measured after 6 days by CellTiter-Glo assay; type: functional, cell-based
KMS26 = experiment: Antiproliferative activity against human KMS26 cells measured after 6 days by CellTiter-Glo assay; type: functional, cell-based
KMS34 = experiment: Antiproliferative activity against human KMS34 cells measured after 6 days by CellTiter-Glo assay; type: functional, cell-based
HL-60 = experiment: Antiproliferative activity against human HL60 cells measured after 6 days by CellTiter-Glo assay; type: functional, cell-based
Pfeiffer = experiment: Antiproliferative activity against human Pfeiffer cells measured after 6 days by CellTiter-Glo assay; type: functional, cell-based
MOLM16 [17] = experiment: Antiproliferative activity against human MOLM16 cells measured after 6 days by CellTiter-Glo assay; type: functional, cell-based
U-266 = experiment: Antiproliferative activity against human U266B1 cells measured after 6 days by CellTiter-Glo assay; type: functional, cell-based
Kasumi 1 = experiment: Antiproliferative activity against human Kasumi-1 cells measured after 6 days by CellTiter-Glo assay; type: functional, cell-based
THP2 = experiment: Antiproliferative activity against human THP2 cells measured after 6 days by CellTiter-Glo assay; type: functional, cell-based
KMS-11 = experiment: Antiproliferative activity against human KMS11 cells measured after 6 days by CellTiter-Glo assay; type: functional, cell-based
[18] = Decrease in MYC mRNA expression in tumor of SCID beige mouse xenografted with human MOLM16 cells at 30 mg/kg, po administered twice daily via gavage as single dose measured after 2 hrs by RT-PCR analysis relative to control; type: functional, organism-based
[19] = Decrease in MYC mRNA expression in tumor of SCID beige mouse xenografted with human MOLM16 cells at 100 mg/kg, po administered twice daily via gavage as single dose measured after 2 hrs by RT-PCR analysis relative to control; type: functional, organism-based
[20] = Antitumor activity against human MOLM16 cells xenografted in SCID beige mouse assessed as tumor growth inhibition at 12.5 mg/kg, po BID administered through gavage for 21 days; type: functional; settings: read-out: TGI
[21] = Antitumor activity against human MOLM16 cells xenografted in SCID beige mouse assessed as tumor growth inhibition at 25 mg/kg, po BID administered through gavage for 21 days; type: functional; settings: read-out: TGI
MOLM16 [22] = experiment: Antitumor activity against human MOLM16 cells xenografted in SCID beige mouse assessed as tumor growth inhibition compound administered through oral gavage twice daily for 21 days; type: functional, cell-based
Mus musculus [23] = experiment: Toxicity in SCID beige mouse xenografted with human MOLM16 cells assessed as body weight loss at 12.5 to 50 mg/kg, po BID administered through gavage for 21 days; type: organism-based; settings: in vivo
Mus musculus [24] = experiment: Inhibition of MYC mRNA expression in SCID beige mouse xenografted with human MOLM16 cells assessed as MYC transcript level at 3 to 100 mg/kg, po administered twice daily via gavage as single dose measured after 24 hrs by RT-PCR analysis relative to control; type: functional; parameters: scale not given: the % may be the effect or the level left

Papp A→B at 3 h, 10 µM [1]: 15 ×10⁻⁶ cm/s | fraction unbound at 4 h, 5 µM [2]: 0.16 | clearance [3]: 9.6 mL/min/kg | Vd [4]: 1.5 L/kg | Cmax [5]: 163 µM | INH (Cytochrome P450 2C9): > 10 µM | fCmax [6]: 26 µM | INH (Cytochrome P450 1A2): > 10 µM | INH (Cytochrome P450 2C19): > 10 µM | INH (Cytochrome P450 2D6): > 10 µM | inhibition [7]: Active | inhibition [8]: Active | inhibition [9]: Active | inhibition [10]: Active | inhibition [11]: Active | inhibition [12]: Active | inhibition [13]: Active | inhibition [14]: Active | inhibition [15]: Active | inhibition [16]: Active
Compound: CC(=O)N1CCc2c(c(Nc3ccc(-c4cnn(C)c4)cc3F)nn2[C@@H]2CCOC2)C1
Activity (Jurkat): Active | Activity (KMS26): Active | Activity (KMS34): Active | Activity (HL-60): Active | Activity (Pfeiffer): Active | Activity (MOLM16 [17]): Active | Activity (U-266): Active | Activity (Kasumi 1): Active | Activity (THP2): Active | Activity (KMS-11): Active | inhibition [18]: 78% | inhibition [19]: 86% | inhibition in vivo at 12.5 mg/kg [20]: 46% | inhibition in vivo at 25 mg/kg [21]: 65% | TGI (MOLM16 [22]): Dose-dependent effect | Activity (Mus musculus [23]): 7.4% | Activity (Mus musculus [24]): 150 - 200%
